The record followed here is patent US9476030B2, “Self-renewing endodermal progenitor lines generated from human pluripotent stem cells and methods of use thereof” (The Children's Hospital of Philadelphia, priority 2011, dated 2016).

What all share (format): cell-based, human
Assay [1] deals with H9-EP cells. Kind of assay: EP cell maintenance: cell number / cell growth under various media conditions. The following applies: for proliferation of EP cells (total cell number after 7-day expansion): FIG. 4B. On the procedure: (§1) FIG. 4. Cytokine Requirements and Critical Signaling Pathways for EP Cell Maintenance and Differentiation. […] In each condition, one of the four cytokines was omitted or inhibitors of signaling pathways were added. The H9-EP cell line was grown for 1 week in optimal EP Basic Media (BASIC) or in the absence of BMP4, or bFGF or VEGF. (A) Flow cytometric analyses of SOX17 versus PDX1, or SOX17 versus FOXA1 are shown. […] (C-D) To evaluate the role of TGF signaling in EP cell maintenance and differentiation, the small molecule inhibitor SB431542 was added to EP media. (C) H9-EP cells were cultured in normal EP media (BASIC) or in EP media supplemented with SB431542 (6 M) either in the presence (+SB) or the absence of BMP4 (−BMP+SB). Cells were harvested at day 6. Flow cytometric analyses of SOX17 versus FOXA1 are shown. (D) H9-EP cells were cultured in the presence (SB, red circles) or the absence (BASIC, blue squares) of SB431542 for 3 passages and cell growth analyzed by cell counts at each passage. […] Cells were harvested at day 14 of differentiation, and were compared to those derived from SB-untreated group (BASIC). Flow cytometric analyses of C-peptide versus Glucagon are shown.
Cells were fed every two days, and were split at 1×10^6/58 cm^2 every 6 days by trypsinization. The small molecule inhibitors PD0325901 (Sebolt-Leopold et al., 2004; Ying et al., 2008), PD173074 (Mohammadi et al., 1998) and SB431542 (Laping et al, 2002; Inman et al., 2002) were purchased from Cayman Chemicals and Stemgent, respectively.

Assay [2] concerns H9-EP cells. Kind of assay: Flow cytometric analysis of SOX17 / PDX1 / FOXA1 in EP cells under various media conditions. Set-up: SOX17 expression in EP cells: dose or concentration left out as unconfirmed. As for the experimental part: as §1
Single cell suspensions were obtained by dissociating day 5 transient endoderm, EP cell cultures, or EP cell differentiation cultures with 0.25% trypsin at 37° C. for 3-5 minutes. Cell surface antigen staining was performed in IMDM with 10% fetal calf serum. For intracellular staining, cells were fixed with 1.6% paraformaldehyde (Electron Microscopy Sciences) at 37 C for 20 minutes, and then washed twice with PBS+1% BSA. The fixed cells were permeabilized and stained in 1× Permeabilization Wash Buffer (BioLegend, 421002). The stained cells were analyzed with the BD FACS Canto II Flow Cytometer (BD Biosciences), and the data was analyzed using the Flowjo software (TreeStar). The sources and concentrations of primary, secondary antibodies and isotype controls are listed below.
In general terms: Flow cytometry measures light scatter and fluorescence of single cells or particles in a stream.

In a further assay the test system is H9-EP and iPS2-EP cells. Description: Pancreatic differentiation of EP cells after culture with SB431542. The settings on record: EP cells cultured with SB431542 for 5 days, then differentiated, day 14, FIG. 4E. As for the experimental part: FIG. 4. Cytokine Requirements and Critical Signaling Pathways for EP Cell Maintenance and Differentiation. […] In each condition, one of the four cytokines was omitted or inhibitors of signaling pathways were added. The H9-EP cell line was grown for 1 week in optimal EP Basic Media (BASIC) or in the absence of BMP4, or bFGF or VEGF. (A) Flow cytometric analyses of SOX17 versus PDX1, or SOX17 versus FOXA1 are shown. […] (C-D) To evaluate the role of TGF signaling in EP cell maintenance and differentiation, the small molecule inhibitor SB431542 was added to EP media. […] Cells were harvested at day 6. Flow cytometric analyses of SOX17 versus FOXA1 are shown. […] Cells were harvested at day 14 of differentiation, and were compared to those derived from SB-untreated group (BASIC). Flow cytometric analyses of C-peptide versus Glucagon are shown. […] (2011), was modified by omitting the first step, and by adding-secretase inhibitor X (Calbiochem, 2 M) from day 8 to day 12 of differentiation, as well as by adding human insulin (Sigma, 800 pM) and nicotinamide (Sigma, 10 mM) from day 10 and onwards. […] Mouse Wnt3a was supplemented to the step 2 media at 3 ng/ml. From day 10 and onwards, the medium was alternated every day between high dextrose (60 mM) and low dextrose (20 mM). […] Insulin secretion was calculated based on the total cell number and the percentage of c-peptide+ cells of each experiment. […]

[3] abbreviates: inhibitor of FGF/Ras/MEK pathway added to EP media.
The mark [4] stands for this setting: withdrawal of the cytokine, within one week, FIG. 4A.
Where [5] appears, read: withdrawal of the cytokine from EP basic media.

As to `CCN(CC)CCCCNc1ncc2cc(-c3cc(OC)cc(OC)c3)c(NC(=O)NC(C)(C)C)nc2n1` [PD173074], in the assay with H9-EP cells [1] (setting [3]), the “proliferation of EP cells (total cell number after 7-day expansion)” value is “reduced proliferation dramatically”.

With `O=C(NOC[C@H](O)CO)c1ccc(F)c(F)c1Nc1ccc(I)cc1F` [PD0325901], in the assay on H9-EP cells [1] (setting [3]), the “proliferation of EP cells (total cell number after 7-day expansion)” value was “reduced proliferation dramatically”.

Regarding `NC(=O)c1ccc(-c2nc(-c3ccc4c(c3)OCO4)c(-c3ccccn3)[nH]2)cc1` [SB431542], in the assay with H9-EP cells [2] (EP media supplemented with SB431542, harvested at day 6, FIG. 4C), the “SOX17 expression in EP cells” value is “completely abolished SOX17 expression”. Moreover, the “differentiation of EP cells into pancreatic β-cells” value in the assay on H9-EP and iPS2-EP cells is given as “inhibited differentiation into pancreatic β-cells”. Besides, in the assay on H9-EP cells [1] (SB431542 added to EP media, FIG. 4D), the “proliferation of EP cells (relative cell growth over 3 passages)” value is reported as “drastically suppressed proliferation”.

As for “BMP4: human cytokine in EP basic medium (50 ng/ml)”, in the assay with H9-EP cells [2] (setting [4]), the “PDX1 expression in EP cells” value was “up-regulation of PDX1” and the “SOX17 expression in EP cells” value is listed as “almost complete loss of SOX17 expression”.

Regarding “EGF: human cytokine in EP basic medium (10 ng/ml) (NSDSECPLSHDGYCLHDGVCMYIEALDKYACNCVVGYIGERCQYRDLKWWELR; UniProt P01133 971-1023, looked up)”, the “proliferation of EP cells (total cell number after 7-day expansion)” value with H9-EP cells [1] (setting [5]) is listed as “significant decrease in proliferation”.

For the compound VEGF, the “proliferation of EP cells (total cell number after 7-day expansion)” value with H9-EP cells [1] (setting [5]) is reported as “significant decrease in proliferation”.

With “bFGF: human cytokine in EP basic medium (10 ng/ml)”, the “proliferation of EP cells (total cell number after 7-day expansion)” value in the assay with H9-EP cells [1] (setting [5]) is given as “reduced proliferation dramatically”.
